Source: paper PMC4659708 (Nature, 2015)

Key:
[1] = molecular target: T1, α1 glycine receptor (GlyREM) (Danio rerio, UniProt O93430, DEL334-400/INS333AGT); test: TEVC in Xenopus oocytes, agonist activation; type: cell-based
T1 sequence (O93430 with tags, fused parts or gaps INS333AGT/DEL334-400): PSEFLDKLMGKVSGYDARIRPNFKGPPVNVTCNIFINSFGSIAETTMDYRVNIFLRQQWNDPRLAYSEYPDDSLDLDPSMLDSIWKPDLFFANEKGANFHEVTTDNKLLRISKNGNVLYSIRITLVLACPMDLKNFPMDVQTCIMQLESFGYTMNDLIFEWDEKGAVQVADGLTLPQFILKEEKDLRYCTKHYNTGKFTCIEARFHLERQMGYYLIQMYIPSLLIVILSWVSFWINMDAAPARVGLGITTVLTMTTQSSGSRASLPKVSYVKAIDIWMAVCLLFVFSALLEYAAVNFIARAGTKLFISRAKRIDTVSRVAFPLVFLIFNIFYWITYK

[2] = molecular target: T1, α1 glycine receptor (GlyREM); test: TEVC in Xenopus oocytes, block of glycine current at […]; type: cell-based; conditions: read-out: % inhibition at 1 mM

SMILES	EC50 [1]	inhibition at 1000 µM [2]
NCC(=O)O [gly, glycine]	260 µM	–
C=C(C)[C@@H]1[C@H]2OC(=O)[C@@H]1[C@]1(O)C[C@H]3O[C@]34C(=O)O[C@H]2[C@]14C [ptx, picrotoxinin]	–	~80%
